In ChEMBL document CHEMBL2034891, “Discovery, design and synthesis of Y-shaped peroxisome proliferator-activated receptor δ agonists as potent anti-obesity agents in vivo” (Eur J Med Chem, 2012):

Assays:
[1] = target: T1, Peroxisome proliferator-activated receptor alpha (Homo sapiens, UniProt Q07869); assay: Transactivation activity at human PPARalpha expressed in african green monkey CV1 cells after 24 hrs by luciferase reporter gene assay; assay type: cell-based, CV-1
T1 sequence (Q07869 whole entry): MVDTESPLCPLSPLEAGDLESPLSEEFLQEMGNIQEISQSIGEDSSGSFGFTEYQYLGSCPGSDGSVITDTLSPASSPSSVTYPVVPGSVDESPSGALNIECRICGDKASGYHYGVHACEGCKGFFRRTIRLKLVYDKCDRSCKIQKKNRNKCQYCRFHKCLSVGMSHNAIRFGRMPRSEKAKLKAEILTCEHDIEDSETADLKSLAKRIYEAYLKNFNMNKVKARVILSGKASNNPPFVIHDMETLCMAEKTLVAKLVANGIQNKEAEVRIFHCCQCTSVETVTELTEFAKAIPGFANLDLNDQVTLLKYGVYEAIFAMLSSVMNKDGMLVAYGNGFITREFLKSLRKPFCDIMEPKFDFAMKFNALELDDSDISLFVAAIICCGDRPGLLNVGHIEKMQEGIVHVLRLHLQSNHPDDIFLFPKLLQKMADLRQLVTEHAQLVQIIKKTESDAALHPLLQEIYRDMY

[2] = target: T2, Peroxisome proliferator-activated receptor gamma (Homo sapiens, UniProt P37231); assay: Transactivation activity at human PPARgamma expressed in african green monkey CV1 cells after 24 hrs by luciferase reporter gene assay; assay type: cell-based, CV-1
T2 sequence (P37231 whole entry): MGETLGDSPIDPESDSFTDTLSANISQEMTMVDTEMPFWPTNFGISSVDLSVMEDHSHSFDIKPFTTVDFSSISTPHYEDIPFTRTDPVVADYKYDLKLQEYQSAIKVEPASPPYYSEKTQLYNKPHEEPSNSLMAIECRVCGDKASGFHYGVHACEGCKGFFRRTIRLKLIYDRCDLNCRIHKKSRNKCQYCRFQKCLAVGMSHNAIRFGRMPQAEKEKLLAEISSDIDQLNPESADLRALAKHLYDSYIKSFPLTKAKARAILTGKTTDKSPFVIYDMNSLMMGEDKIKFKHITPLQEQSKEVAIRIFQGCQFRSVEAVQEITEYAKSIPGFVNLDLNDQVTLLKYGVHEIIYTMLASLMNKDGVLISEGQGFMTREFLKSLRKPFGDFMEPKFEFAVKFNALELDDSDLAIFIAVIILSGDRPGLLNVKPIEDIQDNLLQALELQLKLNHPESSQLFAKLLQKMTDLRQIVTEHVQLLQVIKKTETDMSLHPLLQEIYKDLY

[3] = target: T3, Peroxisome proliferator-activated receptor delta (Homo sapiens, UniProt Q03181); assay: Transactivation activity at human PPARdelta expressed in african green monkey CV1 cells after 24 hrs by luciferase reporter gene assay; assay type: cell-based, CV-1
T3 sequence (Q03181 whole entry): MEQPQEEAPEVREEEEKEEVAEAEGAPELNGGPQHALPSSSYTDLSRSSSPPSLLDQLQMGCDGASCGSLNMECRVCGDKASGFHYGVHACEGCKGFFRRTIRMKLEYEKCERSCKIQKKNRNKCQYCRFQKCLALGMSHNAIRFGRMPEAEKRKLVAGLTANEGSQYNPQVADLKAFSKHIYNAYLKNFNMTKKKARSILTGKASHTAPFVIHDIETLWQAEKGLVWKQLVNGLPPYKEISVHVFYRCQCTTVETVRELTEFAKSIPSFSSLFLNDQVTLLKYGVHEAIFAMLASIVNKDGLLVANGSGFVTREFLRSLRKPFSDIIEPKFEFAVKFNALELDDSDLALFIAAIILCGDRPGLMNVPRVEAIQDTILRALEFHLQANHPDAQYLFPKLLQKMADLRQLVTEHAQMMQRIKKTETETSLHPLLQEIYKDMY

Homo sapiens = organism: Homo sapiens; assay: Selectivity ratio of EC50 for human PPARalpha to EC50 for human PPARdelta
[4] = target: T3, Peroxisome proliferator-activated receptor delta; assay: Binding affinity at human GST-tagged PPARdelta ligand binding domain after 1 hr by time-resolved FRET analysis

| EC50 [1] | EC50 [2] | EC50 [3] | Ratio EC50 (Homo sapiens) | EC50 [4] | Structure (SMILES) |
| --- | --- | --- | --- | --- | --- |
| > 10000 nM | > 10000 nM |  |  |  | Cc1cc(SC(CCCc2ccccc2)c2sc(-c3ccc(C(F)(F)F)cc3)nc2C)ccc1OCC(=O)O (stereo unspecified) |
| 136 nM | > 10000 nM | 1.8 nM |  |  | Cc1cc(SC(C)c2sc(-c3ccc(C(F)(F)F)cc3)nc2C)ccc1OCC(=O)O (stereo unspecified) |
| > 10000 nM | > 10000 nM | 523 nM |  |  | Cc1cc(SC(c2sc(-c3ccc(C(F)(F)F)cc3)nc2C)C(c2ccccc2)c2ccccc2)ccc1OCC(=O)O (stereo unspecified) |
| > 10000 nM | > 10000 nM | 2.8 nM | 10000 |  | Cc1cc(SC(Cc2c(Cl)cccc2Cl)c2sc(-c3ccc(C(F)(F)F)cc3)nc2C)ccc1OCC(=O)O (stereo unspecified) |
|  |  |  |  | 7.9 nM | CCCc1c(OCCCSc2ccc(CC(=O)O)cc2Cl)ccc2c(C(F)(F)F)noc12 |
| 861 nM | > 10000 nM | 1.1 nM |  |  | Cc1cc(SC(CC2CC2)c2sc(-c3ccc(C(F)(F)F)cc3)nc2C)ccc1OCC(=O)O (stereo unspecified) |
| > 10000 nM | > 10000 nM | 6.7 nM |  |  | Cc1cc(SC(Cc2cc(F)c(F)c(F)c2)c2sc(-c3ccc(C(F)(F)F)cc3)nc2C)ccc1OCC(=O)O (stereo unspecified) |
| > 10000 nM | > 10000 nM |  |  |  | Cc1cc(SC(CCCCCCCc2ccccc2)c2sc(-c3ccc(C(F)(F)F)cc3)nc2C)ccc1OCC(=O)O (stereo unspecified) |
| 592 nM | > 10000 nM | 1.1 nM |  |  | Cc1cc(SC(CC(C)C)c2sc(-c3ccc(C(F)(F)F)cc3)nc2C)ccc1OCC(=O)O (stereo unspecified) |
| > 10000 nM | > 10000 nM |  |  |  | Cc1cc(SC(CCCCCCCCCCc2ccccc2)c2sc(-c3ccc(C(F)(F)F)cc3)nc2C)ccc1OCC(=O)O (stereo unspecified) |
| > 10000 nM | > 10000 nM | 9.4 nM |  |  | Cc1cc(SC(Cc2ccc(C(F)(F)F)cc2)c2sc(-c3ccc(C(F)(F)F)cc3)nc2C)ccc1OCC(=O)O (stereo unspecified) |
| > 10000 nM | > 10000 nM | 1.2 nM | 10000 |  | Cc1cc(SC(Cc2c(F)cccc2Cl)c2sc(-c3ccc(C(F)(F)F)cc3)nc2C)ccc1OCC(=O)O (stereo unspecified) |
| > 10000 nM | > 10000 nM | 4.8 nM |  |  | COc1ccc(CC(Sc2ccc(OCC(=O)O)c(C)c2)c2sc(-c3ccc(C(F)(F)F)cc3)nc2C)cc1 (stereo unspecified) |
